The nature of series [1]: Phase I crossover study: plasma pharmacokinetics of sotorasib coadministered with rosuvastatin. The format is in vivo, human. The settings on record: 960 mg sotorasib + 10 mg rosuvastatin, (range). As to the method:
Times of all PK samples were recorded to the nearest minute.

Series [2] in a line: Phase I crossover study: safety and tolerability (treatment-emergent adverse events). The format is in vivo, human. The settings on record: for Treatment-emergent adverse events: healthy subjects; for Safety and tolerability: healthy male and female subjects.
Series [3] has as its system phosphorylation of extracellular signal-regulated kinase (ERK). The settings on record: preclinical studies; cited from earlier work.
The target in the next series is T1, BCRP transporter (Homo sapiens, UniProt Q9UNQ0).
T1 sequence (Q9UNQ0 1-655): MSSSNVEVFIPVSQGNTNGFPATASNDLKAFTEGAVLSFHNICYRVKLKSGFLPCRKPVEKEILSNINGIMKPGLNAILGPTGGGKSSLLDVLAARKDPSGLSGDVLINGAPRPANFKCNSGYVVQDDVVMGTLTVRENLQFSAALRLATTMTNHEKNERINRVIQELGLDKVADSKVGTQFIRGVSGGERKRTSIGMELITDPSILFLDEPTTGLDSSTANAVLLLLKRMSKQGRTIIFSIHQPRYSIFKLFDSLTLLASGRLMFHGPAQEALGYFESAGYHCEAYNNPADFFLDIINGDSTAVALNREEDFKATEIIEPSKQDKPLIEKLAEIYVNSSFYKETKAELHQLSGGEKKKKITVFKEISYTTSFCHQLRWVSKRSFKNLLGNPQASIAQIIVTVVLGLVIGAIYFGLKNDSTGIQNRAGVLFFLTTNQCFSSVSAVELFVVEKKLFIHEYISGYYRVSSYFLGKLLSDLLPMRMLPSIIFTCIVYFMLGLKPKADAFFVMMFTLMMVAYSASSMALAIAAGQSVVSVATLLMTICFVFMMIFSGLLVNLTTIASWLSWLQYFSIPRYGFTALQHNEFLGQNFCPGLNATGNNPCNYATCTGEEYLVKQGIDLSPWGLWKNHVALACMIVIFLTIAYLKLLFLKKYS
The series can be described thus: In vitro BCRP transporter inhibition. The format is in vitro ADME.

The conditions of series [4]: cited from earlier work.
Series [5] relates to plasma proteins, mostly albumin. To be noted: reversible, independent of plasma concentrations; cited from earlier work.
The nature of the next series: clinical. To be noted: human, in vivo, 10 mg. As to the method:
On Day 1, rosuvastatin was administered as a single 10 mg dose (1×10 mg tablet).
All subjects fasted overnight (at least 10 hours) and refrained from consuming water for 1 hour prior to dosing. Subjects refrained from consuming water until 2 hours postdose, excluding the amount of water consumed at dosing, and fasted until 4 hours postdose. At all other times during the study, subjects may have consumed water ad libitum.
Blood samples for determination of rosuvastatin plasma concentrations and PK parameters were collected at hour 0 and at hours 0.5, 1, 2, 3, 4, 5, 6, 8, 10, 12, 24, 36, 48, 72, 96, and 120 hours postdose following administration of rosuvastatin on Days 1 and 6.
Pharmacokinetic analysis was carried out using actual dose administered (mg) and actual postdose blood sampling times. When an actual time was not recorded, it was set to missing and excluded from PK analysis and statistics with sponsor approval.
The parameters Cmax, time of the last quantifiable plasma concentration (tlast), and tmax were obtained directly from the concentration-time profiles. For multiple peaks, the highest postdose concentration was reported as Cmax. In the case that multiple peaks were of equal magnitude, the earliest tmax was reported.

The conditions of series [6]: incidence !2%; cited from earlier work.

SMILES strings stand for the structures.

For `C=CC(=O)N1CCN(c2nc(=O)n(-c3c(C)ccnc3C(C)C)c3nc(-c4c(O)cccc4F)c(F)cc23)[C@@H](C)C1` (atropisomer, axis not shown) [sotorasib], in series [1], the tlast was 48.0 (24.0-48.0) h. Moreover, the Treatment-emergent adverse events result in series [2] (960 mg sotorasib coadministered with 10 mg rosuvastatin) is given as “No treatment-emergent adverse events”. For the same compound, in series [2] (rosuvastatin 10 mg in combination with sotorasib 960 mg, single oral doses), the Safety and tolerability result was “safe and well tolerated”. For the same compound, in series [3], the “Inhibition of ERK phosphorylation” value is reported as “inhibited nearly all detectable phosphorylation”. For the same compound, the BCRP inhibition entry at BCRP transporter was “inhibitor of BCRP transporter in vitro”.

Consider `CC(C)c1nc(N(C)S(C)(=O)=O)nc(-c2ccc(F)cc2)c1/C=C/[C@@H](O)C[C@@H](O)CC(=O)O` [rosuvastatin], for which, in series [4] (human, in vivo), the Elimination half-life result was “approximately 19 hours”; the “Excreted in the feces (rosuvastatin and its metabolites)” value is given as 90%; the “Radiolabeled dose recovered as metabolite” value was “approximately 10%”. Also, the “Cmax and AUC dose dependence” value in series [4] (oral administration) was “increased in approximate proportion to dose”. Moreover, the Absolute bioavailability result in series [4] (oral) is “approximately 20%”. The “Bound to plasma proteins” value in series [5] is 88%. In addition, in “clinical” (both), the AUCinf is listed as 36.2 (60.1) h*ng/mL, the “AUCinf GLSM” value amounted to 36.2 ng·h/mL, the AUClast GLSM worked out at 33.2 ng·h/mL and the Cmax is given as 3.80 (57.8) ng/mL. In the series “clinical” (both), the “Cmax GLSM” value was found to be 3.80 ng/mL; the half-life (in general, the time needed for the level to fall by half in the phase considered) was 13.8 h; the tmax was 3 h. In addition, the AUC(0-t) (in general, exposure summed from dosing to a finite time, without extrapolation to infinity) in the series “clinical” (both, po) came to 33.2 ng·h/mL. Further, the CL/F in “clinical” is 276 (60.1) L/h. The Treatment-emergent adverse events entry in series [2] (10 mg rosuvastatin alone) is on record as “No treatment-emergent adverse events”. The Safety and tolerability entry in series [2] (single oral dose rosuvastatin 10 mg alone) was “safe and well tolerated”. In series [6], the “Most commonly reported adverse reactions” value was “headache, myalgia, abdominal pain, asthenia, and nausea”.

The values above are taken from US20260166040A1 (AMGEN INC., priority 2022, published 2026).
